Test results: US20040029153A1, “Method for estimating metabolic function of xenobiotic and induction thereof” (priority 2000, published 2004)
Like-named read-outs stand apart in the source and are kept apart here.

How the values were obtained:
CYP3A = test: Induction of testosterone hydroxylation activity in primary human hepatocytes
CYP3A mRNA = conditions: hepatocytes
[1] = system: primary human hepatocytes; test: Ethoxycoumarin dealkylation and coumarin conjugation activities in primary human hepatocytes; assay type: in vitro ADME; conditions: HH-110 and HH-118; benz[a]anthracene 5 μmol/L, 3-methylcholanthrene 2 μmol/L; one day and night
Protocol: Lanford's medium (1 mL) containing 75 μmol/L of 7-ethoxycoumarin was added to each well after the culture medium was removed, and the plate was incubated for two hours in the CO2 incubator to allow reaction. Whole volume of each reaction was recovered and stored at −80° C. until measurement. The cells were washed twice with Lanford's medium, and maintained in the CO2 incubator again or directly used as a sample for another test. The stored reactions were thawed, and 50 μl of the reaction was analyzed by liquid chromatography, ethoxycoumarin dealkylation activity and glucuronate and sulfate conjugation activities were comprehensively estimated based on the production of 7-hydroxycoumarin, 7-hydroxycoumarin glucuronide and 7-hydroxycoumarin sulfate. Herein, 7-ethoxycoumarin is converted to 7-hydroxycoumarin after dealkylation, and then conjugated by glucuronate and sulfate.
The cells maintained under the conditions considered optimal in Examples 8 and 9 were continued to be added with 5 μmol/L of benz[a]anthracene or 2 μmol/L of 3-methylcholanthrene one day and night, and then the changes in ethoxycoumarin dealkylation activity was investigated. HH-110 and HH-118 cells were used.
Three samples per each condition i.e., control (Lane 1), adding of 3-methylcholanthrene (Lane 2) and benz[a]anthracene (Lane 3) which were measured independently, and the mean values are shown. […]

CYP1A1/2 = test: Western blotting of CYP1A protein in cryopreserved primary human hepatocytes; conditions: HH-110 and HH-118; 3-methylcholanthrene 2 μmol/L, benz[a]anthracene 5 μmol/L; one day and night; vs control
[2] = system: primary human hepatocytes; test: Effect of culture medium components on rifampicin induction of testosterone hydroxylation activity; assay type: cell-based
CYP1A = test: Induction of ethoxyresorfin dealkylation activity in primary human hepatocytes; assay type: in vitro ADME; conditions: HH-110
Protocol: After the culture medium was completely removed from the culture plate, Lanford's medium (1 mL) containing 8 μmol/L of 7-ethoxyresorfin and 10 μmol/L of dicumarol was added to each well, and the plate was incubated for 30 minutes in the CO2 incubator to allow reaction. Whole volume of each reaction was recovered and stored at −80° C. until measurement. The cells were washed twice with Lanford's medium, and maintained in the CO2 incubator again or directly used as a sample for another test.
The stored reactions were thawed, and accurately 75 μL of each reaction was removed and mixed with 0.1 mol/L of acetate-sodium acetate buffer (pH 4.4, 25 μL) containing 15 Fishman units of β-glucuronidase [EC 3.2.1.31] and 120 Roy units of sulfatase [EC 3.1.6.1], followed by conjugation reaction for two hours at 37° C. Ethanol (200 μL) was added to the reaction and subjected to centrifugation. The supernatant (200 μL) was transferred to a 96-well microtiter plate. Microplate reader (Labsystems, Fluoroscan Ascent) was used to measure the fluorescence intensity at the wavelength of 590 nm when excited with excitation light at the wavelength of 544 nm. The resorfin production figured out from the result was used to measure the ethoxyresorfin dealkylation activity.
The cells maintained under the conditions considered optimal in Examples 8 and 9 were continued to be added with 1 μmol/L of 3-methylcholanthrene for three days, and the changes in ethoxyresorfin dealkylation activity was investigated. HH-110 cells were used.
Primary human hepatocytes (HH-110) were continued to be loaded with 1 μmol/L of 3-methylcholanthrene for three days between days 4th to 7th post seeding (indicated by a crossbar in the figure), and these cells had been maintained further for five days again in the conventional Lanford's medium. During this period, measurement of ethoxyresorfin dealkylation activity was conducted at 8 times to investigate the changes in the activity. Three samples per condition were measured independently, and the mean values are shown. The standard deviations are indicated by error bar. […]

CYP3A4 = system: CYP3A4
Protocol: The cells in the suspension were seeded in a 12-well culture plate coated with collagen at the density of 6×10^5 cells/well, and the plate was incubated one day and night in the CO2 incubator. Subsequently, the culture medium containing 10% fetal bovine serum was removed, 1 ml of fresh serum-free Lanford's medium was added to each well, and the cells were maintained in the CO2 incubator. The inside of the CO2 incubator used in the present invention was maintained at 37° C. in an atmosphere of 5% […] saturated with vapor.
10 μl of the sample was electrophoresed on polyacrylamide gel, and blotted onto PVDF transfer membrane.

In the case of `Clc1ccccc1C(c1ccccc1)(c1ccccc1)n1ccnc1` [clotrimazole], the “testosterone hydroxylation activity, concentration-dependence of induction” value (CYP3A; HH-110, different concentrations) is reported as “increase of the testosterone hydroxylation activity was not observed” and the “CYP3A mRNA level, concentration-dependence of induction” value (CYP3A mRNA) is reported as “increase of the mRNA level was observed”.

In the case of `c1ccc2cc3c(ccc4ccccc43)cc2c1` [benz[a]anthracene], the “production of 7-hydroxycoumarin, 7-hydroxycoumarin glucronide and 7-hydroxycoumarin sulfate” value [1] is reported as “increases” and the “CYP1A1/2 expression (western blotting)” value (CYP1A1/2) is reported as “increased”.

With cholera toxin the “effect of medium component on induction of testosterone hydroxylation activity” value [2] was “enhancing factors”.

`Cc1ccc2cc3c(ccc4ccccc43)c3c2c1CC3` [3-methylcholanthrene] was tested, and the “production of 7-hydroxycoumarin, 7-hydroxycoumarin glucronide and 7-hydroxycoumarin sulfate” value [1] was “increases”, the “ethoxyresorfin dealkylation activity during continued addition” value (CYP1A; 1 μmol/L, added for three days) was “gradually decreased” and the “time of maximum ethoxyresorfin dealkylation activity” value (CYP1A; 1 μmol/L, added for three days) was “one day after 3-methylcholanthrene was added”. For the same molecule, the “ethoxyresorfin dealkylation activity after addition was stopped” value (CYP1A; after three days of 1 μmol/L) was “returned to their original state prior to the addition of the compounds in a day” and the “CYP1A1/2 expression (western blotting)” value (CYP1A1/2) was “increased”.

For `C[C@]12C=CC(=O)C=C1CC[C@@H]1[C@@H]2[C@@H](O)C[C@@]2(C)[C@H]1CC[C@]2(O)C(=O)CO` [predonisolone], the “induction of testosterone hydroxylation activity with glucocorticoid instead of hydrocortisone in medium” value ([2]; HH-110, 1 μmol/L in medium, rifampicin 10 μmol/L for three days) was “can be observed”.

For `C[C@]12CCC(=O)C=C1CC[C@@H]1[C@@H]2[C@@H](O)C[C@@]2(C)[C@H]1CC[C@]2(O)C(=O)CO` [hydrocortisone], the “effect of medium component on maintenance of testosterone hydroxylation activity” value ([2]; HH-110, hydrocortisone-free vs conventional Landford's medium) was “essential”.

`CCC1(c2ccccc2)C(=O)NC(=O)NC1=O` [phenobarbital] was tested, and the “day of maximum testosterone hydroxylation activity after addition” value (CYP3A; HH-110, rifampicin 10 μmol/L, phenobarbital 1 mmol/L, loaded for four days) was 4 days, the testosterone hydroxylation activity (CYP3A; five donors (HH-018, HH-022, HH-029, HH-110, HH-118), rifampicin 10 μmol/L, phenobarbital 1 mmol/L, four days) was “Increases” and the “CYP 3A mRNA (CYP3A/β-actin)” value (CYP3A mRNA) was “Increases”. The “CYP3A4 expression (western blotting)” value (CYP3A4) was “not marked”.

B1: Prolactin: component of Landford's medium (protein, UniProt P01239 31-229, looked up)
Prolactin: TPVCPNGPGNCQVSLRDLFDRAVMVSHYIHDLSSEMFNEFDKRYAQGKGFITMALNSCHTSSLPTPEDKEQAQQTHHEVLMSLILGLLRSWNDPLYHLVTEVRGMKGAPDAILSRAIEIEEENKRLLEGMEMIFGQVIPGAKETEPYPVWSGLPSLQTKDEDARYSAFYNLLHCLRRDSSKIDTYLKLLNCRIIYNNNC
With B1 the “effect of medium component on induction of testosterone hydroxylation activity” value ([2]; HH-110, component-free vs conventional Landford's medium, induction by rifampicin) was “enhancing factors”.
